Laboratory results reported in US9205073B2, “Method for treating virus infection using derivative of aniline” (CHINA MEDICAL UNIVERSITY, priority 2014, dated 2015).

What was measured:
EV71 = assay: Enterovirus infection-induced cytopathic effect / cell survival in RD cells with interferon; type: cell-based, enterovirus type 71; details: for Cell survival rate: 36 hours
Method: The RD cells were cultured in a 24-well culture plate at an initial density of 3×10^4 per well with 1 ml of 2% FBS-containing MEM medium per well. The cells were incubated in an incubator (37° C., 5% CO2) overnight. The medium was removed until the cells adhered to the plate. 1 ml of fresh 2% FBS-containing MEM medium was simultaneously added into each well. The RD cells were infected with an EV71 virus strain (M.O.I.=0.1). […] The RD cells were incubated in an incubator (37° C., 5% CO2) for 36 hours, and then their morphology was observed by photography. In addition, 200 μl of culture medium supernatant was collected from each well and stored at −80° C. for conducting the viral plaque test of Example 12.

JEV T1P1 [1] = assay: Apoptosis test (Annexin V/PI flow cytometry), JEV T1P1-infected BHK-21 cells; type: cell-based, Japanese encephalitis virus; details: JEV T1P1 infection 36 hours; infected without compound 59.05%
Method: (§1) BHK-21 cells and/or TE671cells were separately cultured in a 24-well culture plate, with an initial density of 3×10^4 per well, and with 1 ml of 2% FBS-containing MEM medium per well. The cells were incubated in an incubator (37° C., 5% CO2) overnight, and the medium was removed until the cells adhered to the plate. Then, fresh 2% FBS-containing MEM medium was simultaneously added into each well of the culture plate. The cells were infected with a JEV T1P1 virus strain, wherein the amount of JEV T1P1 used to infect BHK-21 cells was a multiplicity of infection (M.O.I.)=0.1, and the amount of JEV T1P1 used to infect TE671 cells was M.O.I.=0.05. Different concentrations of compound 1 (final concentrations were 0, 2.5, 25 and 125 μM, respectively) were added into different wells. The culture plate was placed into an incubator (37° C., 5% CO2) and maintained therein.
BHK-21 cells and TE 671 cells were washed with PBS after being infected with the JEV T1P1 virus strain for 36 hours in the above experiment (1). Then, PBS was removed. Trypsin-EDTA (150 μl) was added into each well. The cells were incubated in an incubator at 37° C. for 3 minutes. Then, 1 ml MEM medium was added into each well to neutralize EDTA. […] The cells were maintained in the dark for 5 to 10 minutes, and then analyzed by flow cytomerty.

[2] = MTT assay, cell survival / CC50 in TE671 cells; type: cell-based; details: human, read-out: concentration of 50% cytotoxicity (CC50)
Method: In this example, 3-(4,5-dimethylthiazol-2-yl)-2,5-diphenyl tetrazolium bromide (MTT) was used to determine if the survival rate of BHK-21 cells, TE671cells and RD cells would be influenced when being treated with different concentrations of compound 1 prepared in Example 1. The concentration of 50% cytotoxicity (CC50) of compound 1 in BHK-21 cells, TE671cells and RD cells was also calculated.
MTT is a water-soluble tetrazolium salt which can react in the mitochondrial respiratory chain in living cells to metabolize and reduce the tetrazolium bromide shown in the structure of MTT and to form an water-insoluble purple crystal formazan under the reaction of succinate dehydrogenase (SDH) and cytochrome c (cyt c). The amount of the produced crystal is directly proportional to the number of living cells (because the SDH will disappear from dead cells, and thus, the MTT cannot be reduced). Furthermore, a mitochondrium is an organelle in cells that is most sensitive to the environment, and thus, the MTT assay can serve as a marker for the survival rate of cells treated by the drug.
BHK-21 cells, TE671cells and RD cells were cultured in a 96-well culture plate, respectively, with an initial density of 3×10^3 per well, and with 100 μl of 2% FBS-containing MEM medium per well. […] The absorbances of the samples were measured by ELISA at a wavelength of 570/630 nm.

JEV T1P1 [3] = assay: Viral plaque test, JEV T1P1 replication in TE671 cells; type: cell-based, Japanese encephalitis virus; details: treated for 36 or 48 hours
Method: as §1, with “therein. […]” for “therein.”
BHK-21 cells were cultured in a 6-well culture plate at an initial density of 3×10^5 per well with 2 ml of 2% FBS-containing MEM medium per well. […] The cells were washed with clear water, and then the viral plaques were counted to calculate the virus titer.

CCOC(=O)C1=C(Nc2cc(C)cc(C)c2)OCC1=O [Compound 1, ethyl 2-(3′,5′-dimethylanilino)-4-oxo-4,5-dihydrofuran-3-carboxylate]
Cell survival rate (EV71; EV71 M.O.I.=0.1, IFN-β 100 unit/ml + Compound 1 2.5 μM): 46.9% | Cell survival rate (EV71; EV71 M.O.I.=0.1, IFN-β 100 unit/ml + Compound 1 25 μM): 55.86% | Cell survival rate (EV71; EV71 M.O.I.=0.1, IFN-β 100 unit/ml + Compound 1 125 μM): 83.3% | EV71-induced cytopathic effect (EV71; infected 36 hours, combination of compound 1 and 100 units/ml of IFN-β): effectively inhibited | Cell survival rate (EV71; no EV71, no IFN-β, Compound 1 125 μM): 86.85% | ratio of BHK-21 cells getting into late apoptosis (JEV T1P1 [1]): reduced by compound 1 in a concentration dependent manner | CC50 at 48 h [2]: 189 µM | replication of JEV T1P1 (virus titer) (JEV T1P1 [3]): significantly decreased
